Key:
[1] = system: phospho-STAT5 and Cdk1 in MV4-11 tumors; assay: Pharmacodynamic analysis of MV4-11 xenograft tumors (western blot); type: in vivo, SCID mice
Description: SCID mice bearing MV4-11 tumors (n=4 mice/group) were treated with vehicle or ganetespib at either 25 mg/kg or 150 mg/kg at the indicated time points between 6 h and 144 h (6 days). Tumors were resected and the levels of p-STATS, Cdk1, Hsp70 and GAPDH were determined by western blot.
(§1) Cells were disrupted in lysis buffer (CST) and solubilized in 2% SDS. Xenograft tumors (average volume of 100-200 mm3) were excised, cut in half, and flash frozen in liquid nitrogen. Each tumor fragment was lysed in 0.5 mL of lysis buffer using a FastPrep-24 homogenizer and Lysing Matrix A (MP Biomedicals, Solon, Ohio, USA) and lysates clarified by centrifugation. Equal amounts of proteins were resolved by SDS-PAGE and immunoblotted with indicated antibodies. The antigen-antibody complex was visualized and quantitated using an Odyssey system (LI-COR, Lincoln, Nebr., USA).
To determine whether these tumor responses correlated with target modulation in vivo, additional mice bearing MV4-11 xenografts were treated with a single dose of vehicle alone or ganetespib at 25 or 150 mg/kg. Tumors were harvested between 6 and 144 hours later and pharmacodynamic analysis was performed by examining the expression levels of phospho-STAT5, Cdk1 and Hsp70 (FIG. 17). In accord with the in vivo tumor growth data, dose-dependent effects on the duration of target inhibition within the tumors were observed. […] While the relatively quick recovery of STAT5 activation should have allowed the tumor to restart growth, the more durable suppression of the cell cycle regulators appeared to have kept the growth of the tumors arrested until the next drug dosing.

[2] = system: JAK2/STAT3 signaling in HCC827 cells; assay: Western blot of constitutive and IL-6 induced STAT3 activity in HCC827 cells; type: cell-based, human
Description: HCC827 lung cancer cells were treated with increasing concentrations of ganetespib or P6 for 24 h followed by a 15 min stimulation with or without 50 ng/ml human recombinant IL-6. The levels of JAK2, total and phospho-STAT3, and PIM2 were analyzed by western blot. GAPDH is included as a loading control.
as §1

[3] = system: SET-2, HEL92.1.7, MV4-11, NCI-H1975 and DU145 cells; assay: Cell viability assay (AlamarBlue, 72 h), group of JAK/STAT-dependent tumor cell lines; type: cell-based, human
Description: SET-2, HEL92.1.7, MV4-11, NCI-H1975 and DU145 cells were treated with ganetespib or 17-AAG over a broad dose range (0.0001 to 1 μM) for 72 h and cell viability assessed by Alamar blue staining.
All cell lines were obtained from the ATCC (Rockville, Md., USA), with the exception of SET-2 cells which were purchased from the German Collection of Microorganisms and Cell Cultures (DSMZ, Germany). Cells were maintained and cultured according to standard techniques at 37° C. in 5% (v/v) CO2 using culture medium recommended by the supplier.
Cells were grown in 96-well plates based on optimal growth rates determined empirically for each line. Twenty-four hours after plating, cells were dosed with the indicated compound or DMSO (0.3%) for 72 h. AlamarBlue (Invitrogen, Carlsbad, Calif., USA) was added (10% v/v) to the cells, and the plates were incubated for 3 h and subjected to fluorescence detection (Ex=545 nm, Em=600 nm) in a SpectraMax Plus 384 microplate reader (Molecular Devices, Sunnyvale, Calif., USA). Data are normalized to percent of control, with IC50 values based on a four-parameter logistic dose response curve (model 205) using XLfit version 5.1 from IDBS (Guildford, U.K.).

[4] = system: Cdk1, phospho-Chk2, cyclins in HEL92.1.7 cells; assay: Western blot of cell cycle proteins in HEL92.1.7 cells; type: cell-based, human
Description: Cells were harvested at the indicated time points and the levels of total and phospho-Cdk1, phospho-Chk2 and GAPDH analyzed by western blot.
FIG. 12 illustrates the effects of ganetespib on JAK/STAT and cell cycle protein expression. HEL92.1.7 cells were treated with 100 nM ganetespib and subject to western blot to determine the levels of Cdk1, cyclin B1, cyclin A1, JAK2, total and phospho-STAT3, and GAPDH at hourly intervals over an 11 h time course.
as §1

HEL92.1.7 cells = assay: Flow cytometry cell cycle analysis; type: cell-based, human
Description: HEL92.1.7 cells were plated at 0.5×10^6 cells/mL and treated as indicated. Cells were harvested and stained with propidium iodide using the BD Cycle TEST PLUS Reagent Kit (BD Biosciences, San Jose, Calif., USA) according to the manufacturer's instructions. Twenty thousand cells were analyzed for their DNA content using a FACS Caliber cytometer (BD Biosciences).

[5] = system: HEL92.1.7 cells (JAK2V617F); assay: HEL92.1.7 disseminated (orthotopic) leukemia survival model; type: in vivo
Description: Beginning 1 day after tumor cell implantation, ganetespib was i.v. dosed at its HNSTD (25 mg/kg) on a five-times per week schedule for 3 weeks through day 19 ([…]). *P<0.0001; 2-sided log-rank test.
Eight-week-old female immunodeficient CB-17/Icr-Prkdcscid/Crl (SCID) mice (Charles River Laboratories, Wilmington, Mass.) were maintained in a pathogen-free environment, and all in vivo procedures were approved by the Synta Pharmaceuticals Corp. Institutional Animal Care and Use Committee. For the MV4-11 model, tumor cells were subcutaneously implanted in SCID mice as previously described (34). Tumor volumes (V) were calculated by caliper measurements of the width (W), length (L), and thickness (T) of each tumor using the formula: V=0.5236 (LWT).
For the HEL92.1.7 model, SCID mice were i.v. injected via the tail vein with 5×10^6 cells in phosphate-buffered saline (PBS) on day 0. Implanted animals were then randomized into groups of 10 and i.v. dosed via the tail vein at 10 mL/kg body weight with either vehicle or ganetespib formulated in 10/18 DRD. Animals were weighed daily and removed from the study at the first sign of hind limb paralysis, which occurred in 100% of vehicle-treated animals. Median overall survival was estimated using the Kaplan-Meier method and the log-rank test (2-sided) for statistical significance. Tumor cells were identified as either CD44- or CD54-positive cells within the CD45-negative population. Spinal column tumor burden was determined by quantitative image analysis with ImageJ software (Wayne Rasband, National Institute of Mental Health) of hematoxylin and eosin stained tissue sections.
(§2) For both models, studies were conducted at the highest non-severely toxic doses (NHSTDs) of 150 mg/kg ganetespib one-time per week or 25 mg/kg ganetespib 5×/week for 3 weeks based on prior tolerability studies conducted in non-tumor bearing mice.

[6] = Tolerability studies in non-tumor bearing mice; type: in vivo; conditions: i.v.
Description: as §2

[7] = 24 h, absence of external ligand

CC(C)c1cc(-c2nnc(O)n2-c2ccc3c(ccn3C)c2)c(O)cc1O [ganetespib, 3-(2,4-dihydroxy-5-isopropyl-phenyl)-4-(1-methyl-indol-5-yl)-5-hydroxy-[1,2,4] triazole]
time by which STAT5 activity recovered in tumors ([1]; single 25 mg/kg dose): ≤ 24 h
time of loss of Cdk1 in tumors ([1]; single 25 mg/kg dose): 24 h
time through which Cdk1 expression remained suppressed in tumors ([1]; single 25 mg/kg dose): at least 48 hours
time to potent inhibition of STAT5 activity in tumors ([1]; single 25 mg/kg dose): ≤ 6 h
duration of repressed STAT5 activation and suppressed Cdk1 expression in tumors ([1]; single 150 mg/kg dose): more than three days
JAK2 expression [2, 7]: dose-dependent decrease in JAK2 expression
constitutive STAT3 activity [2, 7]: loss of STAT3 activity
JAK/STAT signaling stimulated by exogenous IL-6 ([2]; 24 h then 15 min 50 ng/ml IL-6): blocked JAK/STAT signaling stimulation
potency compared with 17-AAG, cell viability ([3]; each of the lines tested): more potent than the ansamycin Hsp90 inhibitor 17-AAG
potency in reducing cellular viability ([3]; group of human hematological and solid tumor cell lines, 72 h): low nanomolar potency
level of phospho-Chk2 [4]: reduced
cyclins A1 and B1 levels ([4]; 100 nM, 11 h time course): temporal accumulation of cyclins A1 and B1
Cdk1 protein expression ([4]; ganetespib 250 nM or P6 1000 nM, 24-48 h): Reduced protein levels
cell cycle distribution (HEL92.1.7 cells): temporal G1 and G2/M arrest in HEL92.1.7 cells, with concomitant loss of S phase
tumor cell burden in bone marrow and spinal cord (histological analysis) ([5]; 25 mg/kg i.v. 5×/week): dramatically decreased tumor cell burden
median overall survival ([5]; 25 mg/kg i.v. 5×/week through day 19, SCID mice): 76.5 days
body weight (tolerability) ([5]; 25 mg/kg i.v. 5×/week, after 3 weeks of dosing): no significant loss of body weight
highest non-severely toxic dose ([6]; 5×/week for 3 weeks): 25 mg/kg
highest non-severely toxic dose ([6]; one-time per week for 3 weeks): 150 mg/kg
